Data: the NIST ThermoML archive (doi:10.1021/acs.jced.7b00902)

Settings: Surface laser light scattering (SLLS); for viscosity: Liquid

O=C(C(F)(F)C(F)(F)F)C(F)(C(F)(F)F)C(F)(F)F [dodecafluoro-2-methylpentan-3-one]
Settings | surface tension liquid-gas [mN/m] | viscosity [mPa·s]
303.16 K | 10.09 | 0.585
313.12 K | 9.26 | 0.4939
313.18 K | 9.24 | 0.5033
323.15 K | 8.43 | 0.4357
333.12 K | 7.56 | 0.3776
343.15 K | 6.7 | 0.329
353.16 K | 5.84 | 0.2907
363.14 K | 4.99 | 0.2569
373.14 K | 4.19 | 0.228
383.13 K | 3.44 | 0.1998
393.15 K | 2.71 | 0.1719
403.17 K | 2.02 | 0.1471
413.18 K | 1.37 | 0.1309
423.15 K | 0.78 | 0.104
433.02 K | 0.27 | 0.0768

FC(F)(F)/C=C/Cl [(E)-1-chloro-3,3,3-trifluoroprop-1-ene]
Settings | surface tension liquid-gas [mN/m] | viscosity [mPa·s]
303.14 K | 13.3 | 0.2857
313.15 K | 12.37 | 0.2504
323.19 K | 10.89 | 0.2265
333.18 K | 9.74 | 0.2079
343.16 K | 8.62 | 0.1891
353.19 K | 7.58 | 0.1695
363.15 K | 6.4 | 0.1595
373.14 K | 5.38 | 0.1406
373.17 K | 5.38 | 0.1448
383.15 K | 4.37 | 0.1318
393.17 K | 3.41 | 0.1191
403.15 K | 2.45 | 0.1047
